# Values quoted from earlier work as cited in patent US7067586B2, “Methods of making ABA-type block copolymers having a random block of hydrophobic and hydrophilic monomers” (Symyx Technologies, Inc., priority 2000, dated 2006).
# Conditions: octanol-water partition coefficient of the monomer; approximate values from web-site estimation program or Hansch et al.
row,Structure (SMILES),log P
1,C=CC(=O)OCCO [2-hydroxyethylacrylate],about −0.21
2,C=C(C)C(=O)OCCO [2-hydroxyethylmethacrylate],about 0.47
3,C=CC(=O)OCCOC [2-methoxyethylacrylate],about 0.45
4,C=CC(=O)NC(C)(C)C [N-t-butyl acrylamide],~1.02
5,C=CCO [allyl alcohol],~0.17
6,C=C(C)C(=O)OCCN(C)C [dimethyl aminoethyl methacrylate],~0.97
7,C=C(C)C(=O)OCC(C)C [isobutyl methacrylate],~2.66
8,C=C(CC(=O)O)C(=O)O [itaconic acid],~−0.34
9,O=C(O)/C=C\C(=O)O [maleic acid],~−0.48
10,C=C(C)C(N)=O [methacrylamide],~−0.26
11,C=C(C)C(=O)O [methacrylic acid],~0.93
12,C=C(C)C(=O)OC [methyl methacrylate],~1.38
13,C=C(C)C(=O)OCCCC [n-butyl methacrylate],~2.36
14,C=Cc1ccccc1 [styrene],about 2.95
15,C=C(C)C(=O)OC(C)(C)C [t-butyl methacrylate],~2.54
16,C=CC(=O)OC(C)(C)C [tert-butylacrylate],about 2.09

# Same assay, conditions: octanol-water partition coefficient of the monomer; approximate values from web-site estimation program or Hansch et al.; listed as t-butyl acrylate
row,Structure (SMILES),log P
1,C=CC(=O)OC(C)(C)C [tert-butylacrylate],~2.09
